Entries after “also recorded” stand apart in the source; their conditions may differ. Marks after values point to notes of the source that are not given here.
System: croton-oil-inflamed mouse skin
Assay: Croton oil-induced inflammation on the mouse ear (irritative contact dermatitis model), leukocyte infiltration of the skin
Assay type: in vivo
Conditions: metronidazole 0.75%; for Inhibition [%] of the Skin Infiltration of Granulocytes & Monocytes (Myelo-Peroxidase Activity) / Inhibition [%] of the Skin Infiltration of Neutrophilic (Elastase Activity): croton oil dissolving-out on mouse ear, inhibition vs croton oil + vehicle treatment, azelaic acid 20%, methylprednisolone 0.1%, ethanol/isopropyl myristat; for Therapeutic effect in the inflammation model in comparison to the vehicle (peroxidase and elastase activity in the skin): azelaic acid 20% in ethanol/isopropyl myristat
Source text: The induction of an inflammatory reaction (irritative contact dermatitis) is a common model for pharmacological evaluation of the anti-inflammatory potential of topically or systemically administered test substances (Trancik and Lowe (1985) Evaluation of Topical Nonsteroidal Anti-Inflammatory Agents, Models in Dermatology, H. Maibach and N. J. Lowe. Basel, Karger: 35-42). It has proven effective, i.a., in the testing of non-steroidal antiphlogistic agents as well as in glucocorticoid steroids and is regarded as the most reproducible in-vivo test for the evaluation of topical anti-inflammatory substances (Lorenzetti (1975) Animal to Clinical Correlation of Topical Anti-Inflammatory Efficacy. Animal Models in Dermatology. H. Maibach. Basel Karger: 212-225).
The application of the phorbol ester croton oil to mouse ears results in an acute, inflammatory reaction with edema and immigration of primarily polymorphonuclear granulocytes that reaches its maximum within 24 hours. In this connection, test substances can be administered either preventively (i.e., before administration of the inflammatory stimuli) or simultaneously with croton oil. The croton oil-induced inflammation on the mouse ear is not only a model of irritative and/or allergic contact dermatitis, but also other skin diseases that are associated with a high inflammation and immigration of granulocytes. These include psoriasis, atopic dermatis, common acne and the inflammatory stage of rosacea.
Rosacea is a disease of unknown etiology that is considered by many authors to be in the acne group and is generated on the latter and can remove the latter over the course of time. The disease is divided into three stages, of which in particular Rosacea II and III are characterized by inflammatory nodules, nodes, and patches. A leukocytic infiltrate is found by histology (Braun-Falco et al. (1995) Dermatologie und Venerologie. Heidelberg, Springer). Because of the inflammatory components of these stages with leukocyte infiltration of the skin, the croton oil model reflects aspects of this disease.
The activity included, i.a., the immigrations of leukocytes, measured as peroxidase activity in the skin, as well as the immigration of neutrophilic granulocytes, measured as elastase activity in the skin (Table 1).

Compound	Inhibition [%] of the Skin Infiltration of Granulocytes & Monocytes (Myelo-Peroxidase Activity)	Inhibition [%] of the Skin Infiltration of Neutrophilic (Elastase Activity)	Therapeutic effect in the inflammation model in comparison to the vehicle (peroxidase and elastase activity in the skin)
O=C(O)CCCCCCCC(=O)O [Azelaic Acid, azelaic acid]	21 (n.s.)* %	11 (n.s.)* %	did not show such high, therapeutic effects; also recorded: do not show such high, therapeutic effects
C[C@H]1C[C@@H]2[C@H]([C@@H](O)C[C@@]3(C)[C@H]2CC[C@]3(O)C(=O)CO)[C@@]2(C)C=CC(=O)C=C12 [Methylprednisolone]	90 (p < 0.05)* %	95 (p < 0.05)* %	–
Cc1ncc([N+](=O)[O-])n1CCO [Metroidazole, 1-(2-hydroxyethyl)-2-methyl-5-nitroimidazole]	9 (n.s.)* %	18 (n.s.)* %	did not show such high, therapeutic effects; also recorded: do not show such high, therapeutic effects
